From ChEMBL document CHEMBL5380791, “Modular Biomimetic Strategy Enabled Discovery of Simplified Pseudo-Natural Macrocyclic P-Glycoprotein Inhibitors Capable of Overcoming Multidrug Resistance” (J Med Chem, 2023)
Activity calls are given as the source filed them. The calls are words filed in the database; no cut-off is given here.

How the values were obtained:
[1] = Half life in CD-1 mouse at 3 mg/kg, iv; type: ADME, organism-based; conditions: in vivo
[2] = AUCinf in CD-1 mouse at 3 mg/kg, iv; type: ADME, organism-based; set-up: dose 3 mg/kg, route iv; conditions: in vivo
[3] = Toxicity in Balb/cA nude mouse xenografted with human KBv200 cells assessed as changes in body weight at 50 mg/kg, ip qd administered for 13 days in presence of vinorelbine; type: organism-based; conditions: in vivo, 312 h, time 13 day
[4] = AUCinf in CD-1 mouse at 30 mg/kg, po; type: ADME, organism-based; set-up: dose 30 mg/kg, route po; conditions: in vivo
[5] = Bioavailability in CD-1 mouse at 25 mg/kg, ip; type: ADME, organism-based; conditions: in vivo
KBv200 [6] = test: Antitumor activity against human KBv200 cells xenografted in Balb/cA nude mouse assessed as mean tumor volume at 50 mg/kg, ip administered as single dose and measured on day 0; type: functional
[7] = Toxicity in Balb/cA nude mouse xenografted with human KBv200 cells assessed as mortality at 50 mg/kg, ip qd administered for 13 days; type: organism-based; conditions: in vivo, 312 h, time 13 day
KBv200 [8] = test: Reversal of adriamycin resistance in human KBv200 cells assessed as reduction in cell viability incubated for 72 hrs in presence of adriamycin (reference value: 1291.2+/-308.9 nM); type: functional, cell-based; conditions: KBv200, 72 h
[9] = Half life in CD-1 mouse at 30 mg/kg, po; type: ADME, organism-based; conditions: in vivo
[10] = Clearance in CD-1 mouse at 3 mg/kg, iv; type: ADME, organism-based; conditions: in vivo
KB = test: Reversal of vinorelbine resistance in human KB cells assessed as reduction in cell viability incubated for 72 hrs in presence of vinorelbine (reference value: 7.4+/-2.2 nM); type: functional, cell-based
KBv200 [11] = test: Downregulation of P-gp mRNA expression level in human KBV200 cells by qRT-PCR analysis; type: functional, cell-based
K562 = test: Reversal of vinorelbine resistance in human K562 cells assessed as reduction in cell viability incubated for 72 hrs in presence of vinorelbine (reference value: 5.9+/-0.2 nM); type: functional, cell-based; conditions: K562, 72 h
[12] = Cytotoxicity against human HEK293T cells assessed as reduction in cell viability incubated for 48 hrs by CCK-8 assay; type: toxicity, cell-based, HEK-293T
KBv200 [13] = test: Antitumor activity against human KBv200 cells xenografted in Balb/cA nude mouse assessed as mean tumor volume at 25 mg/kg, ip qd administered for 13 days in presence of vinorelbine; type: functional; conditions: time 13 day
K562/Adr = test: Reversal of vinorelbine resistance in human K562/Adr cells assessed as reduction in cell viability incubated for 72 hrs in presence of vinorelbine (reference value: 7320.6+/-2115.2 nM); type: functional, cell-based
KBv200 [14] = test: Reversal of paclitaxel resistance in human KBv200 cells assessed as reduction in cell viability incubated for 72 hrs in presence of paclitaxel (reference value: 392.9+/-196.5 nM); type: functional, cell-based; conditions: KBv200, 72 h
NCI/ADR-RES = test: Reversal of vinorelbine resistance in human NCI/ADR-RES cells assessed as reduction in cell viability incubated for 72 hrs in presence of vinorelbine (reference value: 6125.7+/-3267.7 nM); type: functional, cell-based
[15] = Cmax in CD-1 mouse at 30 mg/kg, po; type: ADME, organism-based; set-up: dose 30 mg/kg, route po; conditions: in vivo
[16] = Cytotoxicity against human L02 cells assessed as reduction in cell viability incubated for 48 hrs by CCK-8 assay; type: toxicity, cell-based
[17] = AUCinf in CD-1 mouse at 25 mg/kg, ip; type: ADME, organism-based; set-up: dose 25 mg/kg, route ip; conditions: in vivo
KBv200 [18] = test: Reversal of vinorelbine resistance in human KBv200 cells assessed as reduction in cell viability incubated for 72 hrs in presence of vinorelbine (reference value: 224 to 228.30 nM); type: functional, cell-based; conditions: KBv200, 72 h, read-out: IC50
[19] = Tmax in CD-1 mouse at 30 mg/kg, po; type: ADME, organism-based; conditions: in vivo
[20] = Tmax in CD-1 mouse at 25 mg/kg, ip; type: ADME, organism-based; conditions: in vivo
KBv200 [21] = test: Antitumor activity against human KBv200 cells xenografted in Balb/cA nude mouse assessed as T/C ratio at 25 mg/kg, ip qd administered for 13 days in presence of vinorelbine; type: functional; conditions: time 13 day
KBv200 [22] = test: Antitumor activity against human KBv200 cells xenografted in Balb/cA nude mouse assessed as tumor growth inhibition at 50 mg/kg, ip qd administered for 13 days; type: functional; conditions: KBv200, 312 h, time 13 day
OVCAR-8 = test: Reversal of vinorelbine resistance in human OVCAR-8 cells assessed as reduction in cell viability incubated for 72 hrs in presence of vinorelbine (reference value: 16.2+/-4.7 nM); type: functional, cell-based; conditions: OVCAR-8, 72 h
KBv200 [23] = test: Antitumor activity against human KBv200 cells xenografted in Balb/cA nude mouse assessed as T/C ratio at 50 mg/kg, ip qd administered for 13 days; type: functional; conditions: time 13 day
[24] = Half life in CD-1 mouse at 25 mg/kg, ip; type: ADME, organism-based; conditions: in vivo
[25] = Toxicity in Balb/cA nude mouse xenografted with human KBv200 cells assessed as changes in body weight at 50 mg/kg, ip qd administered for 13 days; type: organism-based; conditions: in vivo, 312 h, time 13 day
KBv200 [26] = test: Antitumor activity against human KBv200 cells xenografted in Balb/cA nude mouse assessed as tumor growth inhibition at 25 mg/kg, ip qd administered for 13 days in presence of vinorelbine; type: functional; conditions: KBv200, 312 h, time 13 day
KBv200 [27] = test: Antitumor activity against human KBv200 cells xenografted in Balb/cA nude mouse assessed as mean tumor volume at 50 mg/kg, ip qd administered for 13 days; type: functional; conditions: time 13 day
[28] = Cmax in CD-1 mouse at 25 mg/kg, ip; type: ADME, organism-based; set-up: dose 25 mg/kg, route ip; conditions: in vivo
KBv200 [29] = test: Antitumor activity against human KBv200 cells xenografted in Balb/cA nude mouse assessed as tumor growth inhibition at 50 mg/kg, ip qd administered for 13 days in presence of vinorelbine; type: functional; conditions: KBv200, 312 h, time 13 day
[30] = AUClast in CD-1 mouse at 25 mg/kg, ip; type: ADME, organism-based; set-up: dose 25 mg/kg, route ip; conditions: in vivo
KBv200 [31] = test: Reversal fold, ratio of vinorelbine IC50 for cytotoxicity against human KBv200 cells over test compound IC50 for reversal of vinorelbine resistance in human KBv200 cells; type: functional
[32] = biological target: ATP-dependent translocase ABCB1 (Homo sapiens, UniProt P08183); test: Inhibition of P-gp in human KBv200 cells assessed as induction of conformation change by measuring increase in UIC-2 binding level at 50 uM incubated for 10 mins by UIC-2 reactivity shift assay; type: cell-based; conditions: kbv200, 10 min
ATP-dependent translocase ABCB1, sequence (P08183 whole entry): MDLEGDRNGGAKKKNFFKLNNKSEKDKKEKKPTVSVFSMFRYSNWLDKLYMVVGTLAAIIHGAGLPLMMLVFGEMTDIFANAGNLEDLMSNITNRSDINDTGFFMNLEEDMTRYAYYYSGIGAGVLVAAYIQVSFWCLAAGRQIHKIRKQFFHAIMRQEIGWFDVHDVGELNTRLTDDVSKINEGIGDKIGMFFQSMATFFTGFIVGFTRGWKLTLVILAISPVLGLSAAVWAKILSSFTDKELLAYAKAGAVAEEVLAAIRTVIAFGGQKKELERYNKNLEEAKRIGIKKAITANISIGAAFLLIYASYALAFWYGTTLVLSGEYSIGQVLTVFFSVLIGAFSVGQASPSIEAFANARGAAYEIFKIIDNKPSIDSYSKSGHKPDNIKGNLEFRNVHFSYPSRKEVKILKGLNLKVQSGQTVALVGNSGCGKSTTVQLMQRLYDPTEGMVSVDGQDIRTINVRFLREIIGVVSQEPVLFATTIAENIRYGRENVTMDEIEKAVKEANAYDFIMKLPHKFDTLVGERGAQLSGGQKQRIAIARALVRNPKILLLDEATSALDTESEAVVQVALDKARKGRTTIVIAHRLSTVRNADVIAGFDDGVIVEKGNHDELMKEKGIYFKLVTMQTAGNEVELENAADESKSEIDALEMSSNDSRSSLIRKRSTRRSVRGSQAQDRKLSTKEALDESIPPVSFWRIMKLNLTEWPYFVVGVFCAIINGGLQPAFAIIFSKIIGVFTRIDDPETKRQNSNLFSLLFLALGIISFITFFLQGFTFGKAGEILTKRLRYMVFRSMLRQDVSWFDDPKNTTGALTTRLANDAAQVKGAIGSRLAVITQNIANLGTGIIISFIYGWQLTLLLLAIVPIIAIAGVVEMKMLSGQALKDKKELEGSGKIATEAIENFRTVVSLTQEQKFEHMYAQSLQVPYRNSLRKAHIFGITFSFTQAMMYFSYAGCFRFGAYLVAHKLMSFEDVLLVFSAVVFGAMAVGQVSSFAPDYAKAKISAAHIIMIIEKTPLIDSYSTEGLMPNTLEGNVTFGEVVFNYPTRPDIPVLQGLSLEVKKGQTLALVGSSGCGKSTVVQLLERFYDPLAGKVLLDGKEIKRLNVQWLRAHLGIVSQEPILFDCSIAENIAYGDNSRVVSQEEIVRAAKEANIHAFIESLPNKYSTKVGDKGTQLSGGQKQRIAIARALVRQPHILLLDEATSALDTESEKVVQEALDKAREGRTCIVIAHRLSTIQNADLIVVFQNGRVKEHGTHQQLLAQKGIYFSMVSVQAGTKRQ

KBv200 [33] = test: Antitumor activity against human KBv200 cells xenografted in Balb/cA nude mouse assessed as mean tumor volume at 25 mg/kg, ip administered as single dose and measured on day 0 in presence of vinorelbine; type: functional
KBv200 [34] = test: Antitumor activity against human KBv200 cells xenografted in Balb/cA nude mouse assessed as T/C ratio at 50 mg/kg, ip qd administered for 13 days in presence of vinorelbine; type: functional; conditions: time 13 day
[35] = Oral bioavailability in CD-1 mouse at 30 mg/kg; type: ADME, organism-based; conditions: in vivo
KBv200 [36] = test: Antitumor activity against human KBv200 cells xenografted in Balb/cA nude mouse assessed as mean tumor volume at 50 mg/kg, ip qd administered for 13 days in presence of vinorelbine; type: functional; conditions: time 13 day
KBv200 [37] = test: Antitumor activity against human KBv200 cells xenografted in Balb/cA nude mouse assessed as mean tumor volume at 50 mg/kg, ip administered as single dose and measured on day 0 in presence of vinorelbine; type: functional
[38] = Toxicity in Balb/cA nude mouse xenografted with human KBv200 cells assessed as mortality at 25 mg/kg, ip qd administered for 13 days in presence of vinorelbine; type: organism-based; conditions: in vivo, 312 h, time 13 day
[39] = Toxicity in Balb/cA nude mouse xenografted with human KBv200 cells assessed as changes in body weight at 25 mg/kg, ip qd administered for 13 days in presence of vinorelbine; type: organism-based; conditions: in vivo, 312 h, time 13 day
[40] = Toxicity in Balb/cA nude mouse xenografted with human KBv200 cells assessed as mortality at 50 mg/kg, ip qd administered for 13 days in presence of vinorelbine; type: organism-based; conditions: in vivo, 312 h, time 13 day
[41] = AUClast in CD-1 mouse at 30 mg/kg, po; type: ADME, organism-based; set-up: dose 30 mg/kg, route po; conditions: in vivo
[42] = AUClast in CD-1 mouse at 3 mg/kg, iv; type: ADME, organism-based; set-up: dose 3 mg/kg, route iv; conditions: in vivo

For `O=C1CCCCCCCCCCCNC(=O)[C@@H](Cc2ccccc2)NC(=O)/C(c2cccc3ccccc23)=C\C=C(\c2ccccc2)CN1`, the half-life [1] was 2.08 h, the AUC(0-inf) [2] was 4.35 µg·h/mL and the Activity [3] was “Non-Toxic”. It also gave an AUC(0-inf) [4] of 9.49 µg·h/mL, a bioavailability [5] of 47.3% and an Activity (KBv200 [6]) of 119.8 mm3. The Activity [7] was “Non-Toxic”, the IC50 (KBv200 [8]) was 37.5 nM and the half-life [9] was 2.56 h. For the same molecule, the clearance [10] was 0.714 L/h/kg, the IC50 (KB) was 0.7 nM and the Activity (KBv200 [11]) was “inactive”. The IC50 (K562) was 0.8 nM, the IC50 at 48 h [12] was over 100000 nM and the Activity (KBv200 [13]) was 1384 mm3. The IC50 (K562/Adr) was 75.9 nM, the IC50 (KBv200 [14]) was 0.9 nM and the IC50 (NCI/ADR-RES) was 116 nM. For the same molecule, the Cmax [15] was 2.67 µg/mL, the IC50 at 48 h [16] was over 100000 nM and the AUC(0-inf) [17] was 20.6 µg·h/mL. It also gave an IC50 (KBv200 [18]) of 0.02 nM, a Tmax [19] of 3 h and a Tmax [20] of 2.67 h. For the same molecule, the T/C (KBv200 [21]) was 65%, the inhibition in vivo at 50 mg/kg (KBv200 [22]) was 19% and the IC50 (OVCAR-8) was 4.6 nM. The T/C (KBv200 [23]) was 113%, the half-life [24] was 11.9 h and the Activity [25] was “Non-Toxic”. The inhibition in vivo at 25 mg/kg (KBv200 [26]) was 35%, the Activity (KBv200 [27]) was 1703.9 mm3 and the Cmax [28] was 1.93 µg/mL. For the same molecule, the inhibition in vivo at 50 mg/kg (KBv200 [29]) was 52%, the AUC(0-t) [30] was 17 µg·h/mL and the “Ratio IC50” value (KBv200 [31]) was 432. The Activity [32] was “Active”, the Activity (KBv200 [33]) was 122 mm3 and the T/C (KBv200 [34]) was 48%. The bioavailability [35] was 21.9%, the Activity (KBv200 [36]) was 1059.5 mm3 and the Activity (KBv200 [37]) was 121.6 mm3. The Activity [38] was “Non-Toxic”, the Activity [39] was “Non-Toxic” and the Activity [40] was “Non-Toxic”. For the same molecule, the AUC(0-t) [41] was 9.47 µg·h/mL and the AUC(0-t) [42] was 4.32 µg·h/mL.
